Measured values published in ChEMBL document CHEMBL3044938, “Chromatographic separation and in vitro activity of sorgoleone congeners from the roots of sorghum bicolor” (J Agric Food Chem, 2003).

Target: Photosystem II protein D1 (Spinacia oleracea, UniProt P69560)
Experiment: Inhibition of photosystem II mediated oxygen evolution in Spinacia oleracea (spinach) thylakoid measured for 25 sec
Details: read-out: I50

C=CC/C=C\C/C=C\CCCCCCCC1=C(O)C(=O)C=C(OC)C1=O [SORGOLEONE] was tested. Which IC50 did it give?
Its IC50 is 0.065 µM.

With CCC/C=C\C/C=C\CCCCCCCC1=C(O)C(=O)C=C(OC)C1=O [Sorgoleone-360] as the compound, how does the IC50 read?
The IC50 was 0.104 µM.

With CCCCCC/C=C\CCCCCCCC1=C(O)C(=O)C=C(OC)C1=O [Sorgoleone-362] as the compound, how does the IC50 read?
The IC50 was 0.109 µM.

CCCCCCCCCCCCCC1=C(O)C(=O)C=C(OC)C1=O [Sorgoleone-364] was tested. Which IC50 did it give?
The IC50 was 0.103 µM.
